# Earlier results, collected in the CATMoS acute toxicity set (Mansouri et al. 2021).
# Several values for one entry are separate records, joined by “and”; a condition that tells them apart may be missing. Identical values can stand only once.
# Test: rat acute oral toxicity
# Details: in vivo
# Excerpt: […]The data set underlying the modeling effort for this project was initially compiled by NICEATM and U.S. EPA’s CCTE. Briefly, LD50 data were collected from rat acute oral systemic toxicity tests, including limit tests, ranges/confidence intervals, and discrete LD50 values. The full data set included 21,200 LD50 entries for 15,688 substances. […] Data were reviewed to ensure that LD50 values with obvious errors in the extracted data such as unit conversion errors (e.g., comma and decimal separator misplacements) were either fixed or removed. After this review, 16,209 LD50 values remained. Many of the chemicals represented had multiple LD50 entries, requiring that a single representative value per Chemical Abstracts Service Registry Number (CASRN) identifier be defined to facilitate modeling efforts. Based on ATWG feedback and to define the representative LD50 as a protective value while accounting for the distribution across multiple LD50s, the median of the lowest quartile was computed using only discrete LD50 values (omitting limit test data and range and confidence interval data). A detailed summary of the data compilation is available online on the NICEATM webpage dedicated to the collaborative modeling project (NTP 2020).
# […][…] For categorical designations, limit test and range/confidence interval LD50 data were integrated wherever possible. As such, the number of chemicals with end point values/calls varies across the modeling end points (Table 3) based on whether chemicals had representative LD50 values and/or other data. If a chemical had both, the representative value was used to determine categorical calls rather than limit test data. Some data were useable only for certain end points and categories depending on the thresholds. For example, ranges that spanned multiple hazard categories were considered only for the binary (very toxic/nontoxic) end points and omitted from rendering a determination for hazard category assignment.
# […]The final data set comprising 11,992 chemicals was split into training and evaluation sets […], respectively. This process was performed semirandomly by ordering chemicals based on the five end points (categorical and continuous LD50 values) and partitioning every fourth record into the evaluation set accordingly. This approach was taken to ensure an equivalent distribution of the LD50 values and the different hazard categories between the training and the evaluation sets without supervised sampling of the chemicals based on structures (Figure 1A). The sources of the chemical structures were also kept equivalent between the two sets, with chemical structures obtained from DSSTox, being the highest quality, representing over 75% of each set (Figure 1B).
row,Compound,LD50
1,Oc1cc(Cl)c(Cl)cc1Cl,1620 mg/kg
2,O=C1CCCCCCCC(=O)OCCO1,9200 mg/kg
3,CC(Cc1ccccc1)NCCN1CON=C1c1ccccc1 (stereo unspecified),649 mg/kg
4,CC(C)CCCCCOC(=O)CS,348 mg/kg
5,C=C1/C(=C/C=C2/CCC[C@]3(C)[C@@H]([C@H](C)CCCC(C)C)CC[C@@H]23)C[C@@H](O)C[C@@H]1O,0.34 mg/kg
6,COP(=O)(OC)OC(=CCl)c1cc(Cl)ccc1Cl,3790 mg/kg
7,CCCCc1c(OC(=O)C23CC4CC(CC(C4)C2)C3)n(-c2ccccc2)n(-c2ccccc2)c1=O,1700 mg/kg
8,CCOC(=O)CN(C(=O)CCl)c1c(CC)cccc1CC,2300 mg/kg
9,CC(C)(C)CON=CC1C(C(=O)OC(C#N)c2cccc(Oc3ccccc3)c2)C1(C)C (stereo unspecified),143 mg/kg
10,Cn1c(CCCC(=O)O)nc2cc(N(CCCl)CCCl)ccc21,200 mg/kg
11,CCOc1ccc(NC(=O)C(N=Nc2ccc(-c3ccc(N=NC(C(C)=O)C(=O)Nc4ccc(OCC)cc4)c(Cl)c3)cc2Cl)C(C)=O)cc1 (stereo unspecified),2230 mg/kg
12,CCOP(=O)(OCC)Oc1cc(C)oc(=O)c1,3.34 mg/kg
13,O=P(O)(O)Oc1ccccc1,2290 mg/kg
14,COCC(=O)O,1000 mg/kg
15,C=CCOC(=O)CCC1CCCCC1,585 mg/kg
16,CCCS(=O)(=O)c1c(Cl)cnc(Cl)c1Cl,1100 mg/kg
17,CC(C)(C)N1CCC(c2ccccc2)(c2ccccc2)CC1,165 mg/kg
18,O=C(O)CCC(CC(=O)O)(C(=O)O)P(=O)(O)O (stereo unspecified),4000 mg/kg
19,c1ccc([B-](c2ccccc2)(c2ccccc2)c2ccccc2)cc1,288 mg/kg
20,CC(C)(O)C(C)(O)c1ccc(Cl)cc1 (stereo unspecified),832 mg/kg
21,CN(C)c1nc(N(C)C)nc(N(C)C)n1,350 mg/kg

row,Compound,LD50
1,C=CCN1CC[C@]23c4c5ccc(O)c4O[C@H]2[C@@H](O)C=C[C@H]3[C@H]1C5,1150 mg/kg
2,CCOP(=O)(OCC)SCSCC,0.25 mg/kg
3,CN1C(=O)C2C3C=C(C(O)(c4ccccc4)c4ccccn4)C(C3=C(c3ccccc3)c3ccccn3)C2C1=O (stereo unspecified),12 mg/kg
4,COc1ccc2c3c1O[C@H]1C(=O)CC[C@H]4[C@@H](C2)N(C)CC[C@]314,375 mg/kg
5,COc1c(OP(=S)(OC)OC)cnn(C)c1=O,2.5 mg/kg
6,CCOC(=O)c1cnn(C)c1-n1c(CC)nc2ccccc2c1=O,1820 mg/kg
7,C=CC(=O)OCC(C)O (stereo unspecified),250 mg/kg
8,CCC(CC)(CO)CO,850 mg/kg
9,CCNC1C2CCC(C2)C1c1ccccc1 (stereo unspecified),83 mg/kg
10,CC(O)C(=O)O (stereo unspecified),2100 mg/kg
11,O=C1NC(=O)C2C3C(C(O)(c4ccccc4)c4ccccn4)=CC(C3=C(c3ccccc3)c3ccccn3)C12 (stereo unspecified),6 mg/kg
12,Clc1cc2c(cc1Cl)Oc1c(cc(Cl)c(Cl)c1Cl)O2,0.206 mg/kg
13,Nc1ccccc1SCc1ncon1,79.4 mg/kg and 63 mg/kg
14,Cc1cccc(NC(=S)N(C)C)c1,2200 mg/kg
15,OCCOc1ccc(Cl)cc1Cl,1410 mg/kg
16,CCOC(C1=NCC(C)(CC)CN1)c1cccc(F)c1 (stereo unspecified),165 mg/kg
17,C=CC(=O)OCCSCC,2500 mg/kg
18,CC(=O)SCC(=O)N=c1[nH]c2ccccc2s1,400 mg/kg
19,C[Si]1(C)OCCN(CCO)CCO1,3400 mg/kg
20,CCCCCN(N=O)C(N)=O,560 mg/kg
21,CNCCCC1c2ccccc2C=Cc2ccccc21,299 mg/kg and 240 mg/kg

row,Compound,LD50
1,COc1ccc(CC(=O)O)cc1,1550 mg/kg
2,CCCOC(=O)CC(SP(=S)(OC)OC)C(=O)OCCC (stereo unspecified),6000 mg/kg
3,COS(C)(=O)=O,225 mg/kg
4,C=CC(=O)N(C)C,316 mg/kg
5,Cc1cc(-n2c(C)nc3ccccc3c2=O)cc(C)c1O,230 mg/kg
6,COC(=O)N/N=C/c1c[n+]([O-])c2ccccc2[n+]1[O-],850 mg/kg
7,OCC1CCCO1 (stereo unspecified),1600 mg/kg
8,O=C(O[C@H]1C[C@H]2CC[C@@H](C1)[N+]21CCCC1)C(O)(c1ccccc1)c1ccccc1,1510 mg/kg
9,CCC(CC)COCCC#N,2460 mg/kg
10,ClCC(Cl)(Cl)CCl,6300 mg/kg
11,CCOC(=O)N1CCC=C(C=NOC)C1,200 mg/kg
12,O=NN1CCCCCC1,336 mg/kg
13,O=C(O)/C=C/C(=O)O,3850 mg/kg
14,O=C(O)C1=CC(=C(c2ccc(O)c(C(=O)O)c2)c2ccc(O)c(C(=O)O)c2)C=CC1=O,9000 mg/kg
15,O=C(c1ccccc1)c1cccc(NS(=O)(=O)C(F)F)c1,750 mg/kg and 450 mg/kg
16,CCCCCNCCCCC,270 mg/kg
17,COc1ccc2c(c1)OC(C)(C)C(c1ccccc1)=C2c1ccc(OCCN2CCCC2)cc1,150 mg/kg
18,CC(O)C1CCCCC1 (stereo unspecified),2100 mg/kg
19,COc1ccc(-c2noc(CC(=O)O)c2-c2ccc(OC)cc2)cc1,887 mg/kg
